# pKd: −log10 of the molar value.
# Legend:
# [1] = molecular target: T1, folate receptor (FR) on KB cells (Homo sapiens, UniProt P15328); assay: Relative affinity assay: displacement of [3H]folic acid from FR-positive KB cells; format: binding; conditions: inverse molar ratio to displace 50% of 100 nmol/L [3H]FA, 1 h 37 °C, folic acid set to 1
# T1 construct: endogenous in cells; host or cells: KB cells
# Protocol: FR-positive KB cells were seeded in 24-well Falcon plates and allowed to form adherent monolayers (>90% confluent) overnight in FDRPMI/10% FCS media. Spent incubation medium was replaced with FFRPMI supplemented with 10% HIFCS and containing 100 nmol/L of [^3H]FA in the absence and presence of increasing concentrations of unlabeled folic acid (FA), Compound 34, Compound 37, or non-targeted control (Table 14). Cells were incubated for 1 h at 37° C. and then rinsed three times with 0.5 mL PBS (phosphate-buffered saline). Five hundred microliters of 1% SDS (sodium dodecyl sulfate) in PBS were added to each well; after 5 min, cell lysates were collected, transferred to individual vials containing 5 mL of scintillation cocktail, and then counted for radioactivity. Cells exposed to only the [^3H]FA in FFRPMI (no competitor) were designated as negative controls, whereas cells exposed to the [^3H]FA plus 1 mmol/L unlabeled FA served as positive controls. Disintegrations per minute (DPM) measured in the latter samples (representing nonspecific binding of label) were subtracted from the DPM values from all samples. Relative affinities were defined as the inverse molar ratio of compound required to displace 50% of [^3H]FA bound to FR on KB cells, and the relative affinity of FA for the FR was set to 1.
# [2] = molecular target: T2, folate receptors on FR-positive KB cells (Homo sapiens, UniProt P15328); assay: Binding affinity assay: direct binding of 177Lu-labelled compounds to FR-positive KB cells; conditions: 177Lu-labelled compound, 1 h 37 °C
# T2 construct: endogenous in cells; host or cells: KB cells
# T2 sequence (P15328 25-234): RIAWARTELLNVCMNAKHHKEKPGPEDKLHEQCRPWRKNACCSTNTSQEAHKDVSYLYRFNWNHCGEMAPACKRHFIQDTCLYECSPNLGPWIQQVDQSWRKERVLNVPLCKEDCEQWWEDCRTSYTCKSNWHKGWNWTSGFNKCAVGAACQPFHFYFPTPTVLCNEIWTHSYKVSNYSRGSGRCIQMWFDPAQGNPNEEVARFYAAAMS
# Protocol: FR-positive KB cells and FR-negative A549 cells were seeded in 24-well Falcon plates and allowed to form adherent monolayers (>90% confluent) overnight in FFRPMI/HIFCS. Spent incubation medium was replaced with FFRPMI supplemented with 10% HIFCS containing increasing concentrations (0.78 to 100 nmol/L) of [^177Lu]-Compound 34, [^177Lu]-Compound 37, or [^177Lu]-(non-targeted control) in the absence and presence of 10 μM FA. Cells were incubated for 1 h at 37° C. and then rinsed three times with 0.5 mL PBS. Five hundred microliters of 1% NaOH in PBS were added to each well; after 5 min, cell lysates were collected, transferred to individual tubes, and then counted for radioactivity on a gamma counter. Counts per minute (CPM) values were measured in all samples and plotted against concentration of [^177Lu]-Compound 34, [1^77Lu]-Compound 37, or [^177Lu]-(non-targeted control) using GraphPad Prism 8 program. Dissociation constants (Kd) was calculated using a GraphPad's nonlinear regression one site binding method.
# FR-positive M109 tumor = assay: In vivo biodistribution in mice bearing M109 tumors; conditions: 177Lu chelate
# From the text: Four- to eight-week-old female nu/nu mice or NSG mice (Harlan Sprague-Dawley, Inc.) were maintained on a standard 12-h light-dark cycle and fed ad libitum with Folate deficient purified rodent diet (TestDiet #AIN-93G) for the duration of the experiment. FR-positive M109 or FR-negative HT29 tumor cells were inoculated in the subcutis dorsal medial area of mice. The biodistribution studies were typically performed when tumors were approximately 400-800 mm^3 in volume. Mice were divided into groups of three, and freshly prepared test articles and competitors were injected through the lateral tail vein in a volume of 100 μL/10 g of PBS. Four h to six days post radioactive-agent dose administration, mice were euthanized and organs (blood, heart, lungs, liver, spleen, and kidneys, intestine, stomach, muscle, brain and tumor) were collected, weighed and placed inside counting vials. Each tissue sample was counted for the activities of radioelement using a gamma-counter. Samples of the injectate were used as decay correction standards. Final bar graphs are expressed as % injected dose per gram of tissue or tumor to kidney ratio, or % tumor to (kidneys+liver+spleen) ratio.
# KB tumor = assay: In vivo biodistribution in mice bearing KB tumors; conditions: 225Ac chelate, 30 nmol/kg
# [3] = system: FR-positive IGROV-1 tumor; assay: In vivo biodistribution in Athymic Nude-Foxn1nu mice bearing IGROV-1 tumors; conditions: 177Lu chelate, 600 nmol/kg, 24 h post injection, mean ± SD
# Protocol: Six week old female Athymic Nude-Foxn1nu mice (Envigo) were maintained on a standard 12-h light-dark cycle and fed ad libitum with folate deficient purified rodent dies (SSniff #E15321-147) for the duration of the experiment. FR-positive IGROV-1 tumor cells were inoculated in the subcutis dorsal medial area of mice. The biodistribution studies were […]. Mice were divided into groups of four, and freshly prepared test articles were injected through the lateral tail vein in a volume of 100 μL/10 g of PBS. Four h to 24 h post radioactive agent dose administration, mice were euthanized and organs (blood, bone, bowel (large and small), brain, heart, kidneys, liver, lungs, salivary glands, skeletal muscle, skin, spleen, stomach and tumor) were collected, weight and placed inside counting vials. Each tissue sample was counted for the activities of radioelement using a gamma-counter. Samples of the injective were used as decay correction standards. Final bar graph is expressed as % injected dose per gram of tissue FIG. 9.
# [4] = Stability of [177Lu]-Compound 34 solution, radiochemical purity by radio-HPLC; format: physicochemical
# Protocol: Preparation of [^177Lu]-Compound 34: Compound 34 solution (250 μL, 2 mM) was added to a vial. Gentisic acid/acetate buffer pH 5.5 (800 μL) and ^177LuCl3 solution (170 μL, 184 mCi) were added to the vial. The vial was placed in a shielded heating block and heated at 95° C. for 15 min. After cooling to room temperature, 7 mL of DTPA/sodium ascorbate solution pH 7.4 was added to the labeling mixture. The final solution contains 184 mCi of ^177Lu, 0.6 mg of Compound 34, 8 mg of gentisic acid, 1.5 mg of DTPA, 350 mg of sodium ascorbate.
# [^177Lu]-Compound 34 solution was stored at room temperature and in a refrigerator. The radiochemical purities were monitored using radio-HPLC. [^177Lu]-Compound 34 was stable up to 6 days.
# MDA-MB-231 tumors = assay: In vivo anti-tumor activity in mice bearing MDA-MB-231 tumors; conditions: 300 nmol/3.7 GBq/kg, female nu nu mice, n=5
# Protocol: (§1) Four- to eight-week-old female nu nu mice or NSG mice (Harlan Sprague-Dawley, Inc.) were maintained on a standard 12-h light-dark cycle and fed ad libitum with folate deficient purified rodent diet (TestDiet #AIN-93G). FR-positive (human breast adenocarcinoma) or IGROV (human ovarian adenocarcinoma) or KB (human cervical adenocarcinoma) tumor cells were inoculated subcutaneously at the right flank of each mouse. Mice were dosed with [^177Lu]-Compound 34, [^177Lu]-Compound 37, or [^225Ac]-Compound 5 through the lateral tail vein under sterile conditions in a volume of 100 μL/10 g of phosphate-buffered saline (PBS). Growth of each s.c. tumor was followed by measuring the tumor two times per week. Tumors were measured in two perpendicular directions using Vernier calipers, and their volumes were calculated as 0.5×L×W^2, where L=measurement of longest axis in mm and W=measurement of axis perpendicular to L in mm. A stable disease (SD) was defined as volume reduction of <50% and increase of <50% in two weeks. A partial response (PR) was defined as volume regression >50% but with measurable tumor (>2 mm^3) remaining at all times. Complete response (CR) was defined as a disappearance of measurable tumor mass (<2 mm^3) at some point within the study. Cures were defined as CRs without tumor regrowth within the study time frame. As a general measure of gross toxicity, changes in body weights were determined on the same schedule as tumor volume measurements.
# [5] = Body weight as measure of gross toxicity in the MDA-MB-231 anti-tumor study; format: in vivo; conditions: 300 nmol/3.7 GBq/kg, female nu nu mice bearing MDA-MB-231 tumors
# From the text: as §1, with “Mice were dosed with [^177Lu]-Compound 34, [^177Lu]-Compound 37, or [^225Ac]-Compound 5 through the lateral tail vein under sterile conditions in a volume of 100 μL/10 g of phosphate-buffered saline (PBS).” left out
# T1 sequence (P15328 25-234): as above
SMILES,Relative Binding Affinity [1],T/Kid (FR-positive M109 tumor; 300 nmol/kg),T/Liv (FR-positive M109 tumor; 300 nmol/kg),T/spl (FR-positive M109 tumor; 300 nmol/kg),T^2/kid (FR-positive M109 tumor; 300 nmol/kg),T/Kid [3],T/Liv [3],T/spl [3],pKd [2],partial responses (PRs) (MDA-MB-231 tumors),average weight of mice (tolerability) [5],also measured
"O=C(O)CN1CCN(CC(=O)O)CCN([C@@H](CCC(=O)NC[C@H](NC(=O)c2ccc(NCc3ccc4ccccc4c3)cc2)C(=O)O)C(=O)O)CCN(CC(=O)O)CC1 [(non- targeted control), reference compound]",Non- binder,,,,,,,,,,,"Direct Binding (Kd, nM) [2]: Non- binder"
Nc1nc2ncc(CNc3ccc(C(=O)N[C@@H](CCCCNC(=O)[C@H](Cc4ccc5ccccc5c4)NC(=O)[C@H]4CC[C@H](CNC(=O)CN5CCN(CC(=O)O)CCN(CC(=O)O)CCN(CC(=O)O)CC5)CC4)C(=O)O)cc3)nc2c(=O)[nH]1 [Compound 23],,0.37 +/− 0.11,25.8 +/− 2.4,108 +/− 12.7,1.47 +/− 0.66,,,,,,,T/Kid (KB tumor): 0.08 +/− 0.03; T/Liv (KB tumor): 1.8 +/− 0.7; T/spl (KB tumor): 10.1 +/− 4.7
"Nc1nc2ncc(CNc3ccc(C(=O)N[C@@H](CCCCNC(=O)C[C@H](NC(=O)[C@H](Cc4ccc5ccccc5c4)NC(=O)CNC(=O)CN4CCN(CC(=O)O)CCN(CC(=O)O)CCN(CC(=O)O)CC4)C(=O)O)C(=O)O)cc3)nc2c(=O)[nH]1 [Compound 34, 2,2′,2″-(10-((3S,11S,14S)-1-(4-(((2-amino-4-oxo-3,4-dihydropteridin-6-yl)methyl)amino)phenyl)-3,11-dicarboxy-14-(naphthalen-2-ylmethyl)-1,9,13,16,19-pentaoxo-2,8,12,15,18-pentaazaicosan-20-yl)-1,4,7,10-tetraazacyclododecane-1,4,7-triyl)triacetic acid]",2.21,0.55 +/− 0.1,25.3 +/− 6.6,98.3 +/− 25.1,1.7 +/− 0.9,0.29 +/− 0.05,1.53 +/− 0.57,0.49 +/− 0.07,,,,T/Kid (FR-positive M109 tumor; 600 nmol/kg): 0.80 +/− 0.18; T/Liv (FR-positive M109 tumor; 600 nmol/kg): 29.1 +/− 5.4; T/spl (FR-positive M109 tumor; 600 nmol/kg): 92.8 +/− 5.4; T^2/kid (FR-positive M109 tumor; 600 nmol/kg): 1.97 +/− 0.7
"Nc1nc2ncc(CNc3ccc(C(=O)N[C@@H](CCCCNC(=O)COc4ccc(C[C@H](NC(=O)CNC(=O)CN5CCN(CC(=O)O)CCN(CC(=O)O)CCN(CC(=O)O)CC5)C(=O)O)cc4)C(=O)O)cc3)nc2c(=O)[nH]1 [Compound 37, 2,2′,2″-(10-(2-((2-(((S)-2-(4-(2-(((S)-5-(4-(((2-amino-4-oxo-3,4-dihydropteridin-6-yl)methyl)amino)benzamido)-5-carboxypentyl)amino)-2-oxoethoxy)phenyl)-1-carboxyethyl)amino)-2-oxoethyl)amino)-2-oxoethyl)-1,4,7,10-tetraazacyclododecane-1,4,7-triyl)triacetic acid]",1.53,0.46 +/− 0.14,13.2 +/− 4.5,61.9 +/− 14.4,1.51 +/− 0.57,0.15 +/− 0.03,1.37 +/− 0.37,0.49 +/− 0.17,,,,
"Nc1nc2ncc(CNc3ccc(C(=O)N[C@@H](CCCCNC(=O)C[C@H](NC(=O)[C@H](Cc4ccc5ccccc5c4)NC(=O)CNC(=O)CN4CCN(CC(=O)O)CCN(CC(=O)O)CCN(CC(=O)O)CC4)C(=O)O)C(=O)O)cc3)nc2c(=O)[nH]1 [[^177Lu]-Compound 34, metal not drawn]",,,,,,,,,8.14,five,did not lose any significant weight,"Radiochemical purity (%) ([4]; 0° C., 3 days): 97.19%; Radiochemical purity (%) ([4]; 0° C., 6 days): 96.58%; Radiochemical purity (%) ([4]; 0° C., initial): 97.14%; Radiochemical purity (%) ([4]; Room temperature (24° C.), 3 days): 96.77%; Radiochemical purity (%) ([4]; Room temperature (24° C.), 6 days): 95.89%; Radiochemical purity (%) ([4]; Room temperature (24° C.), initial): 97.14%; time over which the solution was stable ([4]; stored at room temperature and in a refrigerator, radio-HPLC): up to 6 days"
"Nc1nc2ncc(CNc3ccc(C(=O)N[C@@H](CCCCNC(=O)COc4ccc(C[C@H](NC(=O)CNC(=O)CN5CCN(CC(=O)O)CCN(CC(=O)O)CCN(CC(=O)O)CC5)C(=O)O)cc4)C(=O)O)cc3)nc2c(=O)[nH]1 [[^177Lu]-Compound 37, metal not drawn]",,,,,,,,,8.05,four,did not lose any significant weight,complete response (CR) (MDA-MB-231 tumors): one
